Data as given in US5374655A, “Methods for the synthesis of monofucosylated oligosaccharides terminating in di-N-acetyllactosaminyl structures” (Alberta Research Council, priority 1992, dated 1994).

What was measured:
[1] = system: α(13/4)fucosyltransferase; assay: Fucosyltransferase assay: relative rates of fucose transfer onto the 3-hydroxy of GlcNAc in βGal(1-4)βGlcNAc-OR; format: biochemical, human; details: fucosylation of disaccharide glycosides βGal(1-4)βGlcNAc-OR with different substituents at the 6-position of galactose
Description: The βGlcNAc α(13/4)fucosyltranferase was purified from human milk, as reported.^4 The enzymatic reactions were carried out at 37° C. in a plastic tube using a sodium cacodylate buffer (100 mM, pH 6.5), MnCl2 (10 mM), ATP (1.6 mM), NaN3 (1.6 mM). The reaction products were isolated and purified as indicated above.
Experiments were conducted to determine the relative rates of transfer of fucosylation onto the 3-hydroxy of the GlcNAc in disaccharide glycosides βGal(1-4)βGlcNAc-OR having different substituents at the 6-position of the galactose. Fucosyltransferase assays were conducted with α(13/4)fucosyltransferase in a manner similar to that described in the art^4 and gave the following results: […]

ELAM-1 = ELAM-1 dependent cell adhesion to activated vascular endothelium (U937 or HL60 binding to TNFα-stimulated HUVECs); format: cell-based, human; details: HUVECs stimulated with TNFα (10 ng/ml); U937 or HL60 cells
Description: This example examines whether hexasaccharide 5a could inhibit ELAM-1 dependent cell adhesion to activated vascular endothelium. Specifically, an vitro cell binding assay was preformed as described by Lowe et al^33. Briefly, human umbilical vein endothelial cells (HUVECs purchased from Cell Systems, Seattle, Wash., USA) were stimulated with TNFα (10 ng/ml) to express ELAM-1.

Balb/c mice [2] = assay: Persistence of suppression of the DTH inflammatory response, rechallenge 11 weeks after primary immunization; format: in vivo, mouse; details: rechallenge with L111 S-Layer protein 11 weeks after primary immunization
Description: (§1) DTH inflammatory responses were measured using the mouse footpad swelling assay as described by Smith and Ziola^31. […] Seven days later, each group of mice was footpad-challenged with 10 μg of L-111 S-Layer protein. The resulting inflammatory footpad swelling was measured with a Mitutoyo Engineering micrometer 24 hours after challenge.
i. The identical groups of mice treated with hexasaccharide glycoside 5a in Example 7 were rechallenged with L111 S-Layer protein 11 weeks after primary immunization.

Balb/c mice [3] = assay: Mouse footpad swelling assay, DTH inflammatory response to L111 S-Layer protein; format: in vivo; set-up: INCREASE IN FOOTPAD SWELLING: unit not given here
Description: as §1
To assess the effect of hexasaccharide glycoside 5a on the inflammatory DTH response, groups of mice received 100 μg of this compound, injected into the tail vein, 5 hours after challenge. Control groups received 100 μL of phosphate-buffered saline (PBS).

COC(=O)CCCCCCCCO[C@@H]1O[C@H](CO)[C@@H](O[C@@H]2O[C@H](CO)[C@H](O)[C@H](O)[C@H]2O)[C@H](O)[C@H]1NC(C)=O [--OH]
Relative Rate of Transfer [1]: 100

COC(=O)CCOCCO[C@@H]1O[C@H](CO)[C@@H](O[C@@H]2O[C@H](C)[C@H](O)[C@H](O)[C@H]2O)[C@H](O)[C@H]1NC(C)=O [H]
Relative Rate of Transfer [1]: 9

COC(=O)CCCCCCCCO[C@@H]1O[C@H](CO)[C@@H](O[C@@H]2O[C@H](CO)[C@H](O)[C@H](O[C@@H]3O[C@H](CO)[C@@H](O[C@@H]4O[C@H](CO)[C@H](O)[C@H](O[C@]5(C(=O)O)C[C@H](O)[C@@H](NC(C)=O)[C@H]([C@H](O)[C@H](O)CO)O5)[C@H]4O)[C@H](O)[C@H]3NC(C)=O)[C@H]2O)[C@H](O[C@@H]2O[C@@H](C)[C@@H](O)[C@@H](O)[C@@H]2O)[C@H]1NC(C)=O [hexasaccharide glycoside 5a, 8-Methoxycarbonyloctyl (5-Acetamido-3,5-dideoxy-α-D-glycero-D-galacto-2-nonulopyranosylonicacid)-(2-3)--O--β-D-galactopyranosyl-(1-4)--O-- 2-acetamido-2-deoxy-β-D-glucopyranosyl-(1-3)--O--β-D-galactopyranosyl-(1-4)--O--[α-L-fucopyranosyl-(1-3)--O--]2-acetamido-2-deoxy-β-D-glucopyranoside]
inhibition of ELAM-1 dependent binding to the HUVECs (ELAM-1): inhibits ELAM-1 dependent binding to the HUVECs
footpad swelling relative to that exhibited in mice treated with PBS (Balb/c mice [2]): about 60%
reduction in footpad swelling (Balb/c mice [2]; versus PBS control): about 40%
INCREASE IN FOOTPAD SWELLING (Balb/c mice [3]; 100 μg injected into the tail vein 5 hours after challenge, swelling measured 24 hours after challenge): 1.5
footpad swelling as compared to the control mice (Balb/c mice [3]; 100 μg into the tail vein 5 hours after challenge, 24 hours after challenge): less than 50%
